System: γ-secretase
Test: Cell-Based γ-Secretase Assay with ELISA Readout
Design: species or system human
Settings: for IC50: production of Aβ(1-42) in human WT-APP overexpressing CHO cells, ~24 h, footnote a = single determination, footnote b = geometric mean of ≧5 determinations, read-out: Aβ 42B IC50 (nM) Geometric mean of 2-4 determinations (unless otherwise indicated)
Procedure: The ability of compounds to modulate production of amyloid beta protein Aβ(1-42) was determined using human WT-APP overexpressing CHO cells. Cells were plated at 22,000 cells/100 μL well in 96 well tissue culture treated, clear plates (Falcon) in DMEM/F12 based medium and incubated for 24 h at 37° C. Compounds for testing were diluted in 100% DMSO to achieve an eleven point, half log, dose response for IC50 determinations. Compounds were added in fresh medium to achieve 1% final DMSO. Appropriate vehicle or inhibitor controls were added into control wells individually to obtain minimum or maximum inhibition values, respectively, for the assay signal window before the plates were incubated for ˜24 h at 37° C. This procedure produces conditioned media in each well, which is tested for Aβ(1-42) levels in the ELISA detection step described next. The remaining cell cultures in each well are also tested for cell toxicity as described below.
Coating of ELISA assay plates was initiated by addition of 50 μL/well of an in-house Aβ(1-42) specific antibody (3 μg/mL) in 0.1 M NaHCO3 (pH 9.0) into black 384-well Maxisorp® plates (Nunc); incubation was carried out overnight at 4° C. The capture antibody was then aspirated from the ELISA assay plates and plates were washed either 2×100 μL with a Matrical Squirt plate washer, or 3×90 μL with a Thermo Combi, using Wash Buffer (Dulbecco's PBS, 0.05% Tween 20). 90 μL/well of Blocking Buffer (Dulbecco's PBS, 1.0% BSA (Sigma A7030) was then added to plates. Ambient temperature incubation was allowed to proceed for a minimum of 2 h. Blocking Buffer was then removed and 20 μL/well Assay Buffer (Dulbecco's PBS, 1.0% BSA (Sigma A7030), 0.05% Tween 20) was then added. At this point, 35 μL (40 μL prior to August, 2012) (in duplicate) of experimental conditioned media (described above) was transferred into wells of the blocked ELISA plates containing the capture antibody, followed by overnight incubation at 4° C. Cell toxicity was also measured in the corresponding remaining cells after removal of the conditioned media for the Aβ(1-42) assay by a colorimetric cell proliferation assay (CellTiter 96® AQueous One Solution Cell Proliferation Assay, Promega) according to the manufacturer's instructions.
After overnight incubation of the ELISA assay plates at 4° C., unbound Aβ peptides were removed via either 2×100 μL washes with a Matrical Squirt plate washer, or 3×90 μL washes with a Thermo Combi, using Wash Buffer. Europium (Eu) labeled (custom labeled, PerkinElmer) Aβ(1-16) 6e10 Monoclonal Antibody (Covance #SIG-39320) was added, (50 μL/well Eu-6e10@1:10,000, 20 uM EDTA) in Assay Buffer. Incubation at ambient temperature for a minimum of 2 h was followed by either 2×100 μL washes with a Matrical Squirt plate washer, or 3×90 μL washes with a Thermo Combi, using Wash Buffer, before 30 μL/well of Delfia Enhancement Solution (PerkinElmer) was added. Following 30 to 60 min ambient temperature incubation, the plates were read on an EnVision plate reader (PerkinElmer) using standard DELFIA TRF settings. Data analysis including inhibitory IC50 determination was performed using nonlinear regression fit analysis (in-house software) and the appropriate plate mean values for the maximum and minimum inhibition controls.

## Cc1cn(-c2ccc3n(c2=O)CCN(CC24CC2(C)Oc2c(F)cc(OC(F)(F)F)cc24)C3=O)cn1 (racemic) [Example C33, 2-{[3-fluoro-1a-methyl-5-(trifluoromethoxy)-1,1a-dihydro-6bH-cyclopropa[b][1]benzofuran-6b-yl]methyl}-7-(4-methyl-1H-imidazol-1-yl)-3,4-dihydro-2H-pyrido[1,2-a]pyrazine-1,6-dione]
  IC50: 9.3 nM

## Cc1cn(-c2ccc3n(c2=O)CCN(C[C@@]24C[C@]2(C)Oc2ccc(OC(F)(F)F)cc24)C3=O)cn1 (single isomer, unassigned) [Example 2]
Comparison of the Table 7 potencies of separated enantiomers
  potency compared with its enantiomer: more potent than its enantiomer 3
  IC50: 6.5 nM

## Cc1cn(-c2ccc3n(c2=O)CCN(C[C@]24C[C@@]2(C)Oc2ccc(OC(F)(F)F)cc24)C3=O)cn1 (single isomer, unassigned) [Example 3]
  IC50: 59.2 nM

## Cc1cn(-c2ccc3n(c2=O)CCN(C[C@@]24C[C@]2(C)Oc2c(F)cc(OC(F)(F)F)cc24)C3=O)cn1 (single isomer, unassigned) [Example 4]
  IC50: 4.9 nM

## Cc1cn(-c2ccc3n(c2=O)CCN(C[C@]24C[C@@]2(C)Oc2c(F)cc(OC(F)(F)F)cc24)C3=O)cn1 (single isomer, unassigned) [Example 5]
  IC50: 59.2 nM

## Cc1cn(-c2ccc3n(c2=O)CCN(C[C@@]24C[C@]2(C)Oc2cc(F)c(OC(F)(F)F)cc24)C3=O)cn1 (single isomer, unassigned) [Example 6]
  IC50: 7 nM

## Cc1cn(-c2ccc3n(c2=O)CCN(C[C@]24C[C@@]2(C)Oc2cc(F)c(OC(F)(F)F)cc24)C3=O)cn1 (single isomer, unassigned) [Example 7]
  IC50: 38 nM

## Cc1ncn(-c2ccc3n(c2=O)CCN(C[C@@]24C[C@]2(C)Oc2cc(F)c(OC(F)(F)F)cc24)C3=O)n1 (single isomer, unassigned) [Example 8]
  IC50: 36.6 nM

## Cc1ncn(-c2ccc3n(c2=O)CCN(C[C@]24C[C@@]2(C)Oc2cc(F)c(OC(F)(F)F)cc24)C3=O)n1 (single isomer, unassigned) [Example 9]
  IC50: 519 nM

## Cc1cn(-c2ccc3n(c2=O)CCN(C[C@@]24C[C@]2(C)Oc2cc(Cl)c(C(F)(F)F)cc24)C3=O)cn1 (single isomer, unassigned) [Example 10]
  IC50: 3 nM

## Cc1cn(-c2ccc3n(c2=O)CCN(C[C@]24C[C@@]2(C)Oc2cc(Cl)c(C(F)(F)F)cc24)C3=O)cn1 (single isomer, unassigned) [Example 11]
  IC50: 10 nM

## Cc1cn(-c2ccc3n(c2=O)CCN(C[C@@]24C[C@]2(C)Oc2cc(F)c(OC(F)F)cc24)C3=O)cn1 (single isomer, unassigned) [Example 12]
  IC50: 17.8 nM

## Cc1cn(-c2ccc3n(c2=O)CCN(C[C@]24C[C@@]2(C)Oc2cc(F)c(OC(F)F)cc24)C3=O)cn1 (single isomer, unassigned) [Example 13]
  IC50: 84.9 nM

## Cc1cn(-c2ccc3n(c2=O)CCN(C[C@@]24C[C@]2(C)Oc2cc(F)c(C(F)(F)F)cc24)C3=O)cn1 (single isomer, unassigned) [Example 17]
  IC50: 4.4 nM

## Cc1cn(-c2ccc3n(c2=O)CCN(C[C@]24C[C@@]2(C)Oc2cc(F)c(C(F)(F)F)cc24)C3=O)cn1 (single isomer, unassigned) [Example 18]
  IC50: 20.2 nM

## Cc1cn(-c2ccc3n(c2=O)CCN(C[C@@]24C[C@]2(C)Oc2c(F)cc(C(F)(F)F)cc24)C3=O)cn1 (single isomer, unassigned) [Example 19]
  IC50: 11.1 nM

## Cc1cn(-c2ccc3n(c2=O)CCN(C[C@]24C[C@@]2(C)Oc2c(F)cc(C(F)(F)F)cc24)C3=O)cn1 (single isomer, unassigned) [Example 20]
  IC50: 50.1 nM

## Cc1cn(-c2ccc3n(c2=O)CCN(C[C@@]24C[C@]2(C)Oc2c(Cl)cc(C(F)(F)F)cc24)C3=O)cn1 (single isomer, unassigned) [Example 21]
  IC50: 16 nM

## Cc1cn(-c2ccc3n(c2=O)CCN(C[C@]24C[C@@]2(C)Oc2c(Cl)cc(C(F)(F)F)cc24)C3=O)cn1 (single isomer, unassigned) [Example 22]
  IC50: 58.3 nM

## Cc1cn(-c2ccc3n(c2=O)CCN(CC24CC2Oc2ccc(C(F)(F)F)cc24)C3=O)cn1 (stereo not drawn) [Example 1, 7-(4-Methyl-1H-imidazol-1-yl)-2-{[5-(trifluoromethyl)-1,1a-dihydro-6bH-cyclopropa[b][1]benzofuran-6b-yl]methyl}-3,4-dihydro-2H-pyrido[1,2-a]pyrazine-1,6-dione]
  IC50: 48.5 nM

## C[C@]12C[C@@]1(CN1CCn3c(ccc(-n4cnc(CO)c4)c3=O)C1=O)c1cc(OC(F)(F)F)c(F)cc1O2 [Example 14, 2-{[(1aS,6bS)-4-fluoro-1a-methyl-5-(trifluoromethoxy)-1,1a-dihydro-6bH-cyclopropa[b][1]benzofuran-6b-yl]methyl}-7-[4-(hydroxymethyl)-1H-imidazol-1-yl]-3,4-dihydro-2H-pyrido[1,2-a]pyrazine-1,6-dione]
  IC50: 18.7 nM

## Cc1cn(-c2ccc3n(c2=O)CCN(C[C@@]24C[C@]2(C)Oc2ccc(C(F)(F)F)cc24)C3=O)cn1 [Example 15, 7-(4-methyl-1H-imidazol-1-yl)-2-{[(1aS,6bS)-1a-methyl-5-(trifluoromethyl)-1,1a-dihydro-6bH-cyclopropa[b][1]benzofuran-6b-yl]methyl}-3,4-dihydro-2H-pyrido[1,2-a]pyrazine-1,6-dione]
  IC50: 8.5 nM

## Cc1cn(-c2ccc3n(c2=O)CCN(C[C@]24C[C@@]2(C)Oc2ccc(C(F)(F)F)cc24)C3=O)cn1 [Example 16, 7-(4-methyl-1H-imidazol-1-yl)-2-{[(1aR,6bR)-1a-methyl-5-(trifluoromethyl)-1,1a-dihydro-6bH-cyclopropa[b][1]benzofuran-6b-yl]methyl}-3,4-dihydro-2H-pyrido[1,2-a]pyrazine-1,6-dione]
  IC50: 47.3 nM

## Cc1cn(-c2ccc3n(c2=O)CCN(CC24CC2(C)Oc2ccc(OC(F)(F)F)cc24)C3=O)cn1 (stereo not drawn) [Example C22, 7-(4-methyl-1H-imidazol-1-yl)-2-{[1a-methyl-5-(trifluoromethoxy)-1,1a-dihydro-6bH-cyclopropa[b][1]benzofuran-6b-yl]methyl}-3,4-dihydro-2H-pyrido[1,2-a]pyrazine-1,6-dione]
  IC50: 19.5 nM

## Cc1cn(-c2ccc3n(c2=O)CCN(CC24CC2(C)Oc2cc(F)c(OC(F)(F)F)cc24)C3=O)cn1 (stereo not drawn) [Example C40, 2-{[4-fluoro-1a-methyl-5-(trifluoromethoxy)-1,1a-dihydro-6bH-cyclopropa[b][1]benzofuran-6b-yl]methyl}-7-(4-methyl-1H-imidazol-1-yl)-3,4-dihydro-2H-pyrido[1,2-a]pyrazine-1,6-dione]
  IC50: 11.2 nM

## Cc1ncn(-c2ccc3n(c2=O)CCN(CC24CC2(C)Oc2cc(F)c(OC(F)(F)F)cc24)C3=O)n1 (stereo not drawn) [Example C44, 2-{[4-fluoro-1a-methyl-5-(trifluoromethoxy)-1,1a-dihydro-6bH-cyclopropa[b][1]benzofuran-6b-yl]methyl}-7-(3-methyl-1H-1,2,4-triazol-1-yl)-3,4-dihydro-2H-pyrido[1,2-a]pyrazine-1,6-dione]
  IC50: 68.9 nM

From patent US9765073B2, “Cyclopropabenzofuranyl pyridopyrazinediones” (Pfizer Inc., priority 2015, dated 2017)
